Test results: ChEMBL document CHEMBL4627389, “Constituents of Two Dioscorea Species That Potentiate Antibiotic Activity against MRSA” (2020)
The source made the active and inactive calls. No cut-off for these calls is given here.

Key:
Staphylococcus aureus [1] = experiment: Potentiation of […] antibacterial activity against Staphylococcus aureus XU212 assessed as tetracycline MIC at 64 mg/L by broth dilution assay (reference value: […]); format: functional
Staphylococcus aureus [2] = experiment: Potentiation of […] antibacterial activity against Staphylococcus aureus XU212 assessed as fold reduction in tetracycline MIC at 64 mg/L by broth dilution assay relative to tetracycline alone; format: functional
Staphylococcus aureus [3] = experiment: Antibacterial activity against Staphylococcus aureus 1199B assessed as inhibition of efflux pump by measuring increase in intracellular accumulation of ethidium bromide at 0.25 times of MIC after 30 mins by fluorescence assay; format: functional, organism-based
Staphylococcus aureus [4] = experiment: Potentiation of norfloxacin-induced antibacterial activity against Staphylococcus aureus 1199B assessed as norfloxacin MIC at 64 mg/L by broth dilution assay (reference value: 32 mg/L); format: functional
Staphylococcus aureus [5] = experiment: Potentiation of norfloxacin-induced antibacterial activity against Staphylococcus aureus 1199B assessed as fold reduction in norfloxacin MIC at 64 mg/L by broth dilution assay relative to norfloxacin alone; format: functional
Staphylococcus aureus [6] = experiment: Potentiation of […] antibacterial activity against Staphylococcus aureus XU212 assessed as fold reduction in tetracycline MIC at 100 mg/L by broth dilution assay relative to tetracycline alone; format: functional
Staphylococcus aureus [7] = experiment: Potentiation of norfloxacin-induced antibacterial activity against Staphylococcus aureus 1199B assessed as fold reduction in norfloxacin MIC at 100 mg/L by broth dilution assay relative to norfloxacin alone; format: functional
Staphylococcus aureus [8] = experiment: Potentiation of […] antibacterial activity against Staphylococcus aureus XU212 assessed as tetracycline MIC at 100 mg/L by broth dilution assay (reference value: […]); format: functional
Staphylococcus aureus [9] = experiment: Potentiation of norfloxacin-induced antibacterial activity against Staphylococcus aureus 1199B assessed as norfloxacin MIC at 100 mg/L by broth dilution assay (reference value: 32 mg/L); format: functional
Staphylococcus aureus [10] = experiment: Potentiation of […] antibacterial activity against Staphylococcus aureus XU212 assessed as tetracycline MIC at 30 mg/L by broth dilution assay (reference value: […]); format: functional
Staphylococcus aureus [11] = experiment: Potentiation of norfloxacin-induced antibacterial activity against Staphylococcus aureus 1199B assessed as fold reduction in norfloxacin MIC at 30 mg/L by broth dilution assay relative to norfloxacin alone; format: functional
Staphylococcus aureus [12] = experiment: Potentiation of norfloxacin-induced antibacterial activity against Staphylococcus aureus 1199B assessed as norfloxacin MIC at 30 mg/L by broth dilution assay (reference value: 32 mg/L); format: functional
Staphylococcus aureus [13] = experiment: Potentiation of […] antibacterial activity against Staphylococcus aureus XU212 assessed as fold reduction in tetracycline MIC at 20 mg/L by broth dilution assay relative to tetracycline alone; format: functional
Staphylococcus aureus [14] = experiment: Potentiation of norfloxacin-induced antibacterial activity against Staphylococcus aureus 1199B assessed as norfloxacin MIC at 20 mg/L by broth dilution assay (reference value: 32 mg/L); format: functional
Staphylococcus aureus [15] = experiment: Potentiation of norfloxacin-induced antibacterial activity against Staphylococcus aureus 1199B assessed as fold reduction in norfloxacin MIC at 20 mg/L by broth dilution assay relative to norfloxacin alone; format: functional
Staphylococcus aureus [16] = experiment: Antibacterial activity against Staphylococcus aureus 1199B assessed as inhibition of efflux pump by measuring increase in intracellular accumulation of ethidium bromide after 30 mins by fluorescence assay; format: functional, organism-based
Staphylococcus aureus [17] = experiment: Potentiation of […] antibacterial activity against Staphylococcus aureus XU212 assessed as tetracycline MIC at 20 mg/L by broth dilution assay (reference value: […]); format: functional

COc1cc(CCc2ccccc2O)cc(O)c1OC
MIC (Staphylococcus aureus [1]): 64 µg/mL | fold change (FC) (Staphylococcus aureus [2]): 2 | inhibition (Staphylococcus aureus [3]): Active | MIC (Staphylococcus aureus [4]): 2 µg/mL | fold change (FC) (Staphylococcus aureus [5]): 16

COc1ccc(/C=C/C(=O)OCCCCCCCCCCCCCCCCCCCCCCCCCCCCCCCC(=O)O)cc1O
fold change (FC) (Staphylococcus aureus [6]): 16 | fold change (FC) (Staphylococcus aureus [7]): 8 | MIC (Staphylococcus aureus [8]): 8 µg/mL | MIC (Staphylococcus aureus [9]): 4 µg/mL

COc1cc(CCC(=O)CC(O)CC(=O)CCc2ccc(O)c(OC)c2)ccc1O
MIC (Staphylococcus aureus [10]): 128 µg/mL | fold change (FC) (Staphylococcus aureus [11]): 4 | inhibition (Staphylococcus aureus [3]): Active | MIC (Staphylococcus aureus [12]): 8 µg/mL

COC(=O)[C@H]1[C@H]2C[C@@H]3c4[nH]c5cc(OC)ccc5c4CCN3C[C@H]2C[C@@H](OC(=O)c2cc(OC)c(OC)c(OC)c2)[C@@H]1OC [RESERPINE]
fold change (FC) (Staphylococcus aureus [13]): 2 | MIC (Staphylococcus aureus [14]): 16 µg/mL | inhibition (Staphylococcus aureus [3]): Active | fold change (FC) (Staphylococcus aureus [15]): 2 | inhibition (Staphylococcus aureus [16]): Dose-dependent effect | MIC (Staphylococcus aureus [17]): 64 µg/mL

COc1cc(CCC(=O)C[C@H](O)CC(=O)CCc2ccc(O)cc2)ccc1O
fold change (FC) (Staphylococcus aureus [6]): 512 | fold change (FC) (Staphylococcus aureus [7]): 2 | MIC (Staphylococcus aureus [8]): < 0.25 µg/mL | MIC (Staphylococcus aureus [9]): 16 µg/mL
